Here are results for one molecule from paper PMC12523843, “Kuwanon A Targeted YWHAB in Hepatocellular Carcinoma Cells to Inhibit the Raf/MEK/ERK Signaling Pathway” (Cells, 2025).

The test system of data set [1] is N-cadherin and E-cadherin. Kind of data set: Western blot of EMT markers. The class given is cell-based, human. Conditions: 48 h. The method, then: (§1) Cells were harvested using a cell scrape and washed three times with PBS buffer, then lysed on ice in RIPA lysis buffer (Beyotime, Shanghai, China). Protein concentration was determined using a BCA protein assay kit (Beyotime, Shanghai, China). Subsequently, 60 µg of protein was mixed with 5× loading buffer and heated in a 100 °C water bath for 15 min. The samples were subjected to SDS-PAGE electrophoresis, followed by transfer onto a PVDF membrane (Millipore, Darmstadt, Germany). The membrane was blocked with 5% BSA for 2 h at room temperature and incubated sequentially with primary and HRP-conjugated secondary antibodies. Finally, signal detection was performed using an ECL detection system (Clinx, Shanghai, China).

Data set [2] relates to MHCC97 H cells labeled with luciferase. Description: In vivo imaging of pulmonary metastasis after tail vein injection. More on the design: species or system BALB/c-nu mice. The following applies: 30 mg/kg intraperitoneal, once every two days, 32 days. From the text: Thirty-six female BALB/c-nu mice, four weeks old (supplied by Slike Jingda Laboratory Animal Co., Ltd., Changsha, China; Animal qualification number: SCXK-2019-0004), were housed in an SPF room. […] Therefore, female mice were selected for this study; 12 mice were used to establish the hepatocellular carcinoma xenografts. MHCC97 H cells (1 × 10^5 cells) were slowly injected into the left lobe of the mouse liver after being anesthetized with isoflurane. Three days later, the mice received intraperitoneal injections of KA (30 mg/kg) every two days for 45 days. Control mice were administered DMSO injections. Recorded the survival status of the animals. Prior to liver collection, the mice were anesthetized with isoflurane to minimize pain and euthanized by cervical dislocation. Ethics approval serial number: IACUC-20240613-03. Animal experiments were conducted in accordance with the Guide for the Care and Use of Laboratory Animals (Ministry of Science and Technology of China, 2006).
MHCC97 H cells labeled with luciferase (1 × 10^5 cells) were injected into the 4- to 5-week-old female BALB/c-nu mice (SPF grade, average weight 16–18 g) through intravenous injection. Following the injection, luciferase substrate was delivered to the mice via intraperitoneal injection. After a 5-min period of anesthesia with isoflurane, the mice were imaged using an in vivo small animal imaging system. […]

Data set [3] in a line: Renal and liver function tests in treated mice. It counts as in vivo, BALB/c-nu mice. The following applies: KA-treated mice compared to DMSO controls.
The target in the next data set is T1, YWHAB dimer (Homo sapiens, UniProt P31946).
T1 sequence (P31946 1-246): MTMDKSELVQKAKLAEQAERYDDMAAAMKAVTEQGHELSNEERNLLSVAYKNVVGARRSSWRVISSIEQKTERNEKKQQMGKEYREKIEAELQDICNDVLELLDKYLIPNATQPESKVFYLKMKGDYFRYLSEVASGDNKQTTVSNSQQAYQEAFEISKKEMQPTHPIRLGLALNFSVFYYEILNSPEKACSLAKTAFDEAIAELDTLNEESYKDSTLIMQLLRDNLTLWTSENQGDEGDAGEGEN
Description: Co-immunoprecipitation of MYC-YWHAB and FLAG-YWHAB in HEK 293T. It counts as cell-based. More on the design: host or cells: HEK 293T. Conditions: 25 μM and 30 μM, HEK 293T overexpressing MYC-YWHAB and FLAG-YWHAB.

The test system of data set [4] is HCC cells (MHCC97 H and SMMC 7721). Description: Colony formation assay. It counts as cell-based, human. The method, then: Using a colony formation assay, the effect of KA on the colony-forming ability of HCC cells was evaluated. A total of 1000–2000 cells, along with KA, were seeded into each well of a six-well plate. During this period, fresh culture media and KA were replaced multiple times. After 2 to 3 weeks of incubation, the colonies were stained with crystal violet (Beyotime, Shanghai, China) and subsequently quantified in each well using ImageJ 1.52a software.

Another data set concerns MHCC97 H cells. Kind of data set: Transwell migration screen of selected compounds. The class given is cell-based, human. The following applies: compounds at an IC50 concentration. The procedure:
The Transwell assay measured the migration and invasion of cells by calculating the number of cells that passed through the material. Prior to the Transwell migration assay, cells were serum-starved in FBS-free culture medium for 24 h. The cells were then detached using trypsin, washed 1–2 times with PBS, and resuspended in DMEM. Approximately 50,000–100,000 cells were seeded into the upper chamber of the Transwell insert. The lower chamber was filled with 600 μL of complete medium containing the test compound. The Transwell system was incubated for 12 h under standard culture conditions (37 °C, 5% CO2). After incubation, the migrated cells on the lower membrane surface were fixed with 4% paraformaldehyde (PFA) and stained with 0.1% crystal violet. Non-migrated cells remaining in the upper chamber were carefully removed with a cotton swab. Finally, the stained cells were visualized under a microscope. If matrix gel was needed, it should be added according to the instructions (Beyotime, Shanghai, China) before the cells were seeded.

For the next data set, the target named is T2, YWHAB (Homo sapiens, UniProt P31946).
T2 sequence (P31946 1-246): T1 sequence (P31946 1-246)
Description: Cell thermal shift assay (CETSA). The class given is binding. More on the design: endogenous in cells; host or cells: MHCC97 H and SMMC 7721. Conditions: high concentration of KA, 3 h, MHCC97 H and SMMC 7721, 44–65 °C. The method, then:
The cells were treated with a high concentration (3–4 times the IC50) of the drug for 2–4 h before being digested with trypsin. Then the cells were washed 1–2 times with PBS. Resuspend the cells in […] of PBS. Subsequently, divided them into eight portions, each containing 50 µL. Set the appropriate temperature range and gradient. In our research, the range of 44–65 °C was used. Each portion of cells was treated at the specified temperature for 3–5 min. Then, the cells were repeatedly frozen and thawed using liquid nitrogen. After high-speed centrifugation (20,000× g, 20 min), we took the top layer of supernatant. After adding an appropriate amount of loading buffer, we conducted the Western Blot assay. Quantitative analysis was used to determine whether the compound has enhanced the thermal stability of the target protein.

Another data set relates to CDK and cyclin proteins. Description: Western blot of CDK and cyclin proteins. The class given is cell-based, human. The following applies: 48 h, MHCC97 H and SMMC 7721. The procedure: as §1
Setting [5] is: YWHAB-overexpressing HCC cells, KA 15 μM.

As for `CC(C)=CCc1c(-c2ccc(O)c3c2OC(C)(C)C=C3)oc2cc(O)cc(O)c2c1=O` [KA, Kuwanon A], in data set [1] (MHCC97 H and SMMC 7721), the “E-cadherin level (Western blot)” value is “upregulation of E-cadherin” and the “N-cadherin level (Western blot)” value is recorded as “downregulation of N-cadherin”. In addition, the “N-cadherin/E-cadherin ratio under YWHAB overexpression” value in data set [1] (setting [5]) is given as “minimal changes”. Moreover, the “pulmonary metastasis (in vivo imaging)” value in data set [2] was “significantly inhibited the pulmonary metastasis”. The “renal and liver function tests (ALB, total protein, GOT/AST, GPT/ALT)” value in data set [3] is “no significant changes”. Besides, the “dimerization levels of YWHAB (co-immunoprecipitation)” value at YWHAB dimer is “reduced dimerization levels of YWHAB”. The “in vitro colony formation ability under YWHAB overexpression” value in data set [4] (setting [5]) is given as “failed to inhibit the in vitro colony formation ability”. For the same molecule, the colony formation ability entry in data set [4] (indicated concentrations of KA, vs DMSO) is on record as “significantly reduced colony formation ability”. The “migration of MHCC97 H (Transwell)” value with MHCC97 H cells is listed as “significantly inhibited the migration of MHCC97 H”. For the same molecule, at YWHAB, the “thermal stability of YWHAB (CETSA)” value was “increased thermal stability of YWHAB”. Moreover, the “cell cycle-related proteins (Western blot)” value with CDK and cyclin proteins is reported as “downregulation of corresponding cell cycle-related proteins”.
